Experimental data: ChEMBL document CHEMBL2203162, “Triazole pyrimidine nucleosides as inhibitors of Ribonuclease A. Synthesis, biochemical, and structural evaluation” (Bioorg Med Chem, 2012)
pKi: −log10 of the molar value. Blank lines part the entries; values can stand above or below the compound they belong to.

Tests used:
[1] = Competitive inhibition of bovine pancreatic RNase A type 12-A by Dixon plot analysis; parameters: species or system Bos taurus
[2] = Competitive inhibition of bovine pancreatic RNase A type 12-A assessed as degradation of yeast tRNA preincubated for 10 mins before addition of the enzyme by double reciprocal plot analysis; parameters: species or system Bos taurus
Bos taurus = species on record: Bos taurus; experiment: Competitive inhibition of bovine pancreatic RNase A type 12-A assessed as degradation of yeast tRNA at 50 uM preincubated for 10 mins before addition of the enzyme by double reciprocal plot analysis
[3] = molecular target: Ribonuclease pancreatic (Bos taurus) (UniProt P61823); experiment: Inhibition of RNase A
[4] = molecular target: T1, Non-secretory ribonuclease (Homo sapiens, UniProt P10153); experiment: Inhibition of EDN
T1 sequence (P10153 whole entry): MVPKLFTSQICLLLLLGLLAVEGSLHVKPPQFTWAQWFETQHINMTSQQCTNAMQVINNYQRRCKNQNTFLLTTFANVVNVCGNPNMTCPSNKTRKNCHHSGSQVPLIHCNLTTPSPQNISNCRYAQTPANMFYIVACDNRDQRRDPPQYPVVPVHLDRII

Angiogenin = Angiogenin (Homo sapiens, UniProt P03950); experiment: Inhibition of ANG
Chain of Angiogenin (P03950 whole entry): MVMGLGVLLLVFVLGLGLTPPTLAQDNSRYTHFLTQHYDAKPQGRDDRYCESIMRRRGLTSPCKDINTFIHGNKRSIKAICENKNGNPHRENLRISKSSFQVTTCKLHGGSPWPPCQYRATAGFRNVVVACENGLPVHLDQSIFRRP

Ribonuclease pancreatic = molecular target: T2, Ribonuclease pancreatic (Bos taurus, UniProt P61823); experiment: Inhibition of bovine pancreatic RNase A
T2 sequence (P61823 whole entry): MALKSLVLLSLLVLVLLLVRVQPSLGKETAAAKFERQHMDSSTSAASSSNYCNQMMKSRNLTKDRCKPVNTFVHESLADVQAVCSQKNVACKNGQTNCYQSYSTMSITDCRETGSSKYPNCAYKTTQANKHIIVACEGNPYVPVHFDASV

Structure (SMILES): O=c1[nH]c(=O)n([C@@H]2O[C@H](CO)[C@@H](O)[C@H]2O)cc1F [5-FLUOROURIDINE]
- pKi [2]: 4.47

Structure (SMILES): O=c1[nH]c(=O)n(Cc2cn([C@@H]3O[C@H](CO)[C@@H](O)[C@H]3O)nn2)cc1Br
- inhibition (Bos taurus): 20%

Structure (SMILES): O=c1[nH]c(=O)n([C@@H]2O[C@H](CO)[C@@H](O)[C@H]2O)cc1Br
- pKi [2]: 4.16

Structure (SMILES): Nc1ncnc2c1ncn2[C@@H]1O[C@H](COP(=O)(O)OP(=O)(O)O[C@H]2C[C@H](n3ccc(=O)[nH]c3=O)O[C@@H]2COP(=O)(O)O)[C@@H](OP(=O)(O)O)[C@H]1O
- pKi [3]: 7.57
- pKi [4]: 6.74
- pKi (Angiogenin): 3.44

Structure (SMILES): O=c1ccn(Cc2cn([C@@H]3O[C@H](CO)[C@@H](O)[C@H]3O)nn2)c(=O)[nH]1
- pKi (Ribonuclease pancreatic): 6.62

Structure (SMILES): O=c1ccn([C@@H]2O[C@H](CO)[C@@H](O)[C@H]2O)c(=O)[nH]1 [URIDINE]
- pKi [2]: 4.55

More lines, now with the values ahead:

- pKi [1]: 3.19
Structure (SMILES): O=c1ccn([C@@H]2O[C@H](COP(=O)(O)OP(=O)(O)O)[C@@H](O)[C@H]2O)c(=O)[nH]1 [URIDINE_DIPHOSPHATE]

- pKi [1]: 2.40
Structure (SMILES): O=c1ccn([C@@H]2O[C@H](COP(=O)(O)O)[C@@H](O)[C@H]2O)c(=O)[nH]1

- pKi [2]: 4.02
Structure (SMILES): O=c1[nH]c(=O)n(Cc2cn([C@@H]3O[C@H](CO)[C@@H](O)[C@H]3O)nn2)cc1Cl

- pKi [2]: 4.35
Structure (SMILES): O=c1[nH]c(=O)n([C@@H]2O[C@H](CO)[C@@H](O)[C@H]2O)cc1Cl

- pKi [2]: 4.36
Structure (SMILES): Cc1cn([C@@H]2O[C@H](CO)[C@@H](O)[C@H]2O)c(=O)[nH]c1=O
